Literature values in patent publication US9682081B2, “Pharmaceutical gastro-retentive solid oral dosage form of nilotinib” (SUN PHARMACEUTICAL INDUSTRIES LIMITED, priority 2013, dated 2017).

Columns and labels:
[1] = 25° C., pH 4.5 and higher
[2] = Class IV means low/moderate aqueous solubility and low permeability

## Cc1cn(-c2cc(NC(=O)c3ccc(C)c(Nc4nccc(-c5cccnc5)n4)c3)cc(C(F)(F)F)c2)cn1 [Nilotinib, 4-methyl-N-[3-(4-methyl-1H-imidazol-1-yl)-5-(trifluoromethyl)phenyl]-3-[[4-(3-pyridinyl)-2-pyrimidinyl]amino]-benzamide]
[1]
  solubility in aqueous solutions: practically insoluble
[2]
  Biopharmaceutical Classification System (BCS) class: Class IV
